{"source": "patent US7727949B2", "about": "“Cleaning agent for thermostatic chambers” (Wako Pure Chemical Industries, Ltd., priority 2005, dated 2010)", "format_in_all_cases": "cell-based", "key": {"[1]": {"test_system": "Bacillus subtilis (NBRC13719)", "test": "Study of germicidal activity of agents in the presence of proteins", "design": "key: a case where growth of the microorganism on the surface of the medium was recognized is shown by +; a case where growth of the microorganism on the surface of the medium was not recognized is shown by −", "conditions": "agent 50 μg/mL", "procedure": "(§1) Didecyldimethylammonium adipate (DDAA), N-bis(3-aminopropyl)dodecylamine (TAA) and benzalkonium chloride were respectively prepared such that a concentration thereof is 1 w/w %.\n(§2) GOT solution: GOT Substrate-Enzyme solution and GOT•L2α-KG solution which were components of L type Wako GOT•J2 kit (produced by Wako Pure Chemical Industries, Ltd.) were prepared with distilled water so as to become a 0.1 w/w % aqueous solution.\n(§3) GPT solution: GOT Substrate-Enzyme solution and GOT•L2α-KG solution which were components of L type Wako GPT•J2 kit (produced by Wako Pure Chemical Industries, Ltd.) were prepared with distilled water so as to become a 0.1 w/w % aqueous solution.\n(§4) Serum: Control Serum II Wako (produced by Wako Pure Chemical Industries, Ltd.) was prepared with distilled water so as to become a 0.1 w/w % aqueous solution.\n(§5) i) The individual test microorganism, which was preliminarily cultured in bouillon medium in advance until 1×10^8 microorganisms/mL, were diluted with sterilized physiological saline for 100 times (to 1×10^6 microorganisms/mL) to obtain a solution of test microorganisms. ii) Into a 20 mL test tube made of glass which was preliminarily sterilized by dry-heat sterilization, the agent aqueous solution, the reagent solution and the solution of test microorganisms as prepared in the above described i) were added such that a final concentration of the agent become 50 μg/mL, a final concentration of the reagent become 100 μg/mL, and the number of test microorganisms become 1×10^5 microorganisms/mL, respectively, when a total volume thereof is prepared to be 10 mL. And then, the tube was sufficiently stirred. iii) After a lapse of predetermined times (5 min, 10 min, and 15 min), the solution as obtained in the above described ii) was smeared with a platinum loop on the surface of the nutrient agar plate medium preliminarily having been prepared, and the medium was cultured at 35° C.±2° C. for 24 hours. iv) After the cultivation, confirming the presence or not of the growth of the microorganisms on the surface of the medium was conducted. (3) Result\n(§6) In Table 3, a case where growth of the microorganism on the surface of the medium was recognized is shown by +, and a case where growth of the microorganism on the surface of the medium was not recognized is shown by −, respectively."}, "[2]": {"test_system": "Escherichia coli (NBRC3972)", "test": "Study of germicidal activity of agents in the presence of proteins", "design": "key: a case where growth of the microorganism on the surface of the medium was recognized is shown by +; a case where growth of the microorganism on the surface of the medium was not recognized is shown by −", "conditions": "agent 50 μg/mL", "procedure": "as §1, §2, §3, §4, §5, §6"}, "[3]": {"test_system": "Pseudonas aeruginosa (NBRC12689)", "test": "Study of germicidal activity of agents in the presence of proteins", "design": "key to growth of the microorganism P.a: a case where growth of the microorganism on the surface of the medium was recognized is shown by +; a case where growth of the microorganism on the surface of the medium was not recognized is shown by −", "conditions": "for growth of the microorganism P.a: agent 50 μg/mL", "procedure": "as §1, §2, §3, §4, §5, §6"}, "[4]": {"test_system": "Staphylococcus aureus (NBRC12732)", "test": "Study of antimicrobial activity in the presence of proteins (MIC)", "procedure": "(§7) GOT (glutamic-oxaloacetic transaminase) solution: GOT Substrate-Enzyme solution and GOT-2α•KG solution which were components of L type Wako GOT•J2 kit (produced by Wako Pure Chemical Industries, Ltd.) were prepared with distilled water so as to become a 0.2 w/w % aqueous solution.\n(§8) GPT (glutamic-pyruvic transaminase) solution: GOT Substrate-Enzyme solution and GOT•2α-KG solution which were components of L type Wako GPT•J2 kit (produced by Wako Pure Chemical Industries, Ltd.) were prepared with distilled water so as to become a 0.2 w/w % aqueous solution.\n(§9) Serum: Control Serum II Wako (produced by Wako Pure Chemical Industries, Ltd.) was prepared with distilled water so as to become a 0.2 w/w % aqueous solution with distilled water.\n(§10) In a sterilized petri dish having a diameter of 90 mm, an aqueous solution which was obtained by diluting each of agents with distilled water was added such that a concentration of the agent become each predetermined concentrations when the solution is prepared to a total volume of 20 mL, and the agent aqueous solution and a reagent solution such that a final concentration of each of components (GOT, GPT, and serum) in the reagent become 100 μg/mL when the solution is prepared to a total volume of 20 mL. And then, sterilized water was added into the petri dish such that a total volume of sterilized water and the agent aqueous solution become 2 mL. Further, 18 mL of nutrient agar medium, which was sterilized with high pressure steam and preserved at 50° C.±2° C., was added into the petri dish, and it was solidified to obtain an agar plate medium. Furthermore, as a reference, agar plate medium obtained by using pure water instead of the agent solution was also prepared.\n(§11) The individual test microorganisms, which was preliminarily cultured in bouillon medium in advance until 1×10^8 microorganisms/mL, was diluted with sterilized physiological saline for 100 times (to 1×10^6 microorganisms/mL). Next, the prepared solution of the test microorganisms was smeared with a platinum loop on the surface of the agar plate medium prepared in (2), and the medium was cultured at 35° C.±2° C. for 24 hours.\n(§12) After the cultivation, confirming the presence or not of the growth of the microorganism on the surface of the medium was conducted, a minimum concentration of the agent, where growth of the microorganisms cannot be recognized, was determine as the minimum inhibitory concentration (MIC, μg/mL) of the agent."}, "[5]": {"test_system": "Pseudonas aeruginosa (NBRC12689)", "test": "Study of antimicrobial activity in the presence of proteins (MIC)", "procedure": "as §7, §8, §9, §10, §11, §12"}, "[6]": {"test_system": "Bacillus subtilis (NBRC13719)", "test": "Study of antimicrobial activity in the presence of proteins (MIC)", "procedure": "as §7, §8, §9, §10, §11, §12"}, "[7]": {"test_system": "Escherichia coli (NBRC3972)", "test": "Study of antimicrobial activity in the presence of proteins (MIC)", "procedure": "as §7, §8, §9, §10, §11, §12"}}, "data": [{"smiles": "CCCCCCCCCCCCN(CCCN)CCCN", "note": "[TAA, N-bis(3-aminopropyl)dodecylamine]", "values": [{"measurement": "growth of the microorganism B.s", "setting": "[1]; GOT, 5 min", "result": "+"}, {"measurement": "growth of the microorganism B.s", "setting": "[1]; GOT, 10 min", "result": "+"}, {"measurement": "growth of the microorganism B.s", "setting": "[1]; GOT, 15 min", "result": "+"}, {"measurement": "growth of the microorganism B.s", "setting": "[1]; GPT, 5 min", "result": "+"}, {"measurement": "growth of the microorganism B.s", "setting": "[1]; GPT, 10 min", "result": "+"}, {"measurement": "growth of the microorganism B.s", "setting": "[1]; GPT, 15 min", "result": "+"}, {"measurement": "growth of the microorganism B.s", "setting": "[1]; Serum, 5 min", "result": "+"}, {"measurement": "growth of the microorganism B.s", "setting": "[1]; Serum, 10 min", "result": "+"}, {"measurement": "growth of the microorganism B.s", "setting": "[1]; Serum, 15 min", "result": "+"}, {"measurement": "growth of the microorganism E.c", "setting": "[2]; GOT, 5 min", "result": "+"}, {"measurement": "growth of the microorganism E.c", "setting": "[2]; GOT, 10 min", "result": "+"}, {"measurement": "growth of the microorganism E.c", "setting": "[2]; GOT, 15 min", "result": "+"}, {"measurement": "growth of the microorganism E.c", "setting": "[2]; GPT, 5 min", "result": "+"}, {"measurement": "growth of the microorganism E.c", "setting": "[2]; GPT, 10 min", "result": "+"}, {"measurement": "growth of the microorganism E.c", "setting": "[2]; GPT, 15 min", "result": "+"}, {"measurement": "growth of the microorganism E.c", "setting": "[2]; Serum, 5 min", "result": "+"}, {"measurement": "growth of the microorganism E.c", "setting": "[2]; Serum, 10 min", "result": "+"}, {"measurement": "growth of the microorganism E.c", "setting": "[2]; Serum, 15 min", "result": "+"}, {"measurement": "growth of the microorganism P.a", "setting": "[3]; GOT, 5 min", "result": "−"}, {"measurement": "growth of the microorganism P.a", "setting": "[3]; GOT, 10 min", "result": "−"}, {"measurement": "growth of the microorganism P.a", "setting": "[3]; GOT, 15 min", "result": "−"}, {"measurement": "growth of the microorganism P.a", "setting": "[3]; GPT, 5 min", "result": "−"}, {"measurement": "growth of the microorganism P.a", "setting": "[3]; GPT, 10 min", "result": "−"}, {"measurement": "growth of the microorganism P.a", "setting": "[3]; GPT, 15 min", "result": "−"}, {"measurement": "growth of the microorganism P.a", "setting": "[3]; Serum, 5 min", "result": "−"}, {"measurement": "growth of the microorganism P.a", "setting": "[3]; Serum, 10 min", "result": "−"}, {"measurement": "growth of the microorganism P.a", "setting": "[3]; Serum, 15 min", "result": "−"}, {"measurement": "germicidal activity to Pseudonas aeruginous", "setting": "[3]; data are not shown, effect does not change in the presence of protein", "result": "high germicidal activity"}, {"measurement": "Minimum Inhibitory Concentration S.a", "setting": "[4]; GOT 100 μg/mL", "result": 10, "unit": "µg/mL"}, {"measurement": "Minimum Inhibitory Concentration S.a", "setting": "[4]; GPT 100 μg/mL", "result": 10, "unit": "µg/mL"}, {"measurement": "Minimum Inhibitory Concentration S.a", "setting": "[4]; Pure Water", "result": 10, "unit": "µg/mL"}, {"measurement": "Minimum Inhibitory Concentration S.a", "setting": "[4]; Serum 100 μg/mL", "result": 10, "unit": "µg/mL"}, {"measurement": "Minimum Inhibitory Concentration P.a", "setting": "[5]; GOT 100 μg/mL", "result": 100, "unit": "µg/mL"}, {"measurement": "Minimum Inhibitory Concentration P.a", "setting": "[5]; GPT 100 μg/mL", "result": 100, "unit": "µg/mL"}, {"measurement": "Minimum Inhibitory Concentration P.a", "setting": "[5]; Pure Water", "result": 10, "unit": "µg/mL"}, {"measurement": "Minimum Inhibitory Concentration P.a", "setting": "[5]; Serum 100 μg/mL", "result": 100, "unit": "µg/mL"}, {"measurement": "Minimum Inhibitory Concentration B.s", "setting": "[6]; GOT 100 μg/mL", "result": 10, "unit": "µg/mL"}, {"measurement": "Minimum Inhibitory Concentration B.s", "setting": "[6]; GPT 100 μg/mL", "result": 10, "unit": "µg/mL"}, {"measurement": "Minimum Inhibitory Concentration B.s", "setting": "[6]; Pure Water", "result": 10, "unit": "µg/mL"}, {"measurement": "Minimum Inhibitory Concentration B.s", "setting": "[6]; Serum 100 μg/mL", "result": 10, "unit": "µg/mL"}, {"measurement": "Minimum Inhibitory Concentration E.c", "setting": "[7]; GOT 100 μg/mL", "result": 50, "unit": "µg/mL"}, {"measurement": "Minimum Inhibitory Concentration E.c", "setting": "[7]; GPT 100 μg/mL", "result": 50, "unit": "µg/mL"}, {"measurement": "Minimum Inhibitory Concentration E.c", "setting": "[7]; Pure Water", "result": 50, "unit": "µg/mL"}, {"measurement": "Minimum Inhibitory Concentration E.c", "setting": "[7]; Serum 100 μg/mL", "result": 50, "unit": "µg/mL"}]}]}
